Data: patent publication US7067633B2, “Targeting cellular entry, cell survival, and pathogenicity by dynein light chain 1/PIN in human cells” (Board of Regents, The University of Texas System, priority 2003, dated 2006)

Tests used:
ZR75 cells [1] = test: Cell cycle progression by FACS analysis of serum-starved clones; format: cell-based, human; settings: serum-starved stable clones
Description: FIGS. 5A–5C—Requirement of DLC1/PIN and Pak1 interaction in cell proliferation and survival. FIG. 5A: Equal number of cells ZR75R stable cells expressing DLC1/PIN wild type or DLC1/PIN^del88-89 mutant were plated and cell proliferation was determined by trypsinizing and counting cells using a coulter counter. Each colne was plated in triplicate and experiment was repeated twice with similar results. FIG. 5B: Cell cycle progression of DLC1/PIN wild type or mutant clones was analyzed by FACS analysis. […] For example, a smooth nuclear membrane was scored as nonapoptotic, as opposed to membrane blebbing or rupture, which was scored as apoptotic. Nuclei committed to enter mitosis were not scored in either of these groups because they were easily identified for their specific “pulverized” pattern of Lamin A/C staining. Ten randomly selected fields were analyzed for each condition. […]
DLC1/PIN regulation of cell growth and survival. […] After 10 h, apoptosis was quantitated by scoring the integrity of the nuclear membrane in cells expressing both RFP and myc tags to detect DLC/DLC1/PIN and Pak1 respectively (FIG. 5D).

ZR75 cells [2] = test: Tumorigenicity of stably expressing ZR75 cells in nude mice; format: in vivo; settings: 5×10^6 cells, no exogenous estradiol
Description: FIGS. 6A–6E—DLC1/PIN overexpression potentiates anchorage-independent growth and promotes tumorigenesis. FIG. 6A: Effect DLC1/PIN expression on anchorage-independent growth of ZR75 cells. The anchorage-independent growth potential of DLC1/PIN-expressing clones was measured by the ability of the cells to form colonies on soft agar. […] Error bars represent standard error of mean. FIG. 6B: Western blot analysis of the expression of DLC1/PIN and Pak1 in lysates from cells derived from MCF10AT model system. […] FIG. 6C: Nude mice were injected with 5×10^6 cells stably expressing pcDNA or wild type DLC1/PIN (clone#2) or mutant DLC1/PIN^del88-89 and tumor growth was measured at weekly intervals. […] Tumor growth was only observed in cells expressing wild type DLC1/PIN but not detected in mutant expressing cells. FIG. 6E: Morphology of tumor and expression of T7-DLC1/PIN in DLC1/PIN-induced tumors as measured by H&E and anti T7 staining respectively.
Cell proliferation, soft-agar, and tumorigenicity assays. […] For xenograft studies, 5×10^6 cells were implanted subcutaneously into mammary fat-pads of 10 nude mice, as previously described (Bagheri et al., 2001), and allowed to grow for 20 weeks; tumor size was then measured. […]

In the case of “DLC1/PIN^del 88-89: DLC1/PIN mutant in which Ser88 and amino acid 89 were deleted”, the cell cycle distribution (ZR75 cells [1]) was “significant increase in the cells in pre-Go phase” and the tumorigenic potential (ZR75 cells [2]) was “did not exhibited any tumorigenic potential”.
